The values that follow come from article PMC10824666 (Nature Cancer, 2023).

Common to all, as to assay: biochemical
What all share (set-up): Eurofins DiscoverX kinase panel, competitive binding assay at 1 uM, percent of DMSO control
What all share (details): competitive binding, percent of DMSO control

One experiment addresses T1, TAK1 (Homo sapiens, UniProt O43318).
T1 construct: gene MAP3K7
T1 sequence (O43318 1-606): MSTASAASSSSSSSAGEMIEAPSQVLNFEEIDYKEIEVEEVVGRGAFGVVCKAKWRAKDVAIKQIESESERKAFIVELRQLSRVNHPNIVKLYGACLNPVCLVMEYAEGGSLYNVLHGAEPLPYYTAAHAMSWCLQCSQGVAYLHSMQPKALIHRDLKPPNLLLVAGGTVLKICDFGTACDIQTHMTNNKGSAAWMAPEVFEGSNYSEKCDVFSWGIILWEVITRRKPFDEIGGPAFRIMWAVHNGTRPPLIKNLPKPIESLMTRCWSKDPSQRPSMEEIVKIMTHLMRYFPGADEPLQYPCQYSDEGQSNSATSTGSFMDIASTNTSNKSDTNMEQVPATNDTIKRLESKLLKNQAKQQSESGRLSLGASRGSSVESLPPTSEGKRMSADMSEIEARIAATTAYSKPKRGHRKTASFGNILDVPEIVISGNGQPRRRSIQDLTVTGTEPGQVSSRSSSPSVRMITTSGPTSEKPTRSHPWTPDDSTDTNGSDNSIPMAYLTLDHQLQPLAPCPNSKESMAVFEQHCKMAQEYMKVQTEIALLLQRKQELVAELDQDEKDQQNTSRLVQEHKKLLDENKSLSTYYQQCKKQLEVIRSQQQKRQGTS
The method, boiled down:
(§1)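 Single-point profiling at 1 µM compound in a competition-binding format against 96 kinases, read out as POC relative to control; n = 1.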

The target of the next experiment is CLK4 (Homo sapiens, UniProt Q9HAZ1). An outline of the steps: as §1
Chain of CLK4 (Q9HAZ1 whole entry): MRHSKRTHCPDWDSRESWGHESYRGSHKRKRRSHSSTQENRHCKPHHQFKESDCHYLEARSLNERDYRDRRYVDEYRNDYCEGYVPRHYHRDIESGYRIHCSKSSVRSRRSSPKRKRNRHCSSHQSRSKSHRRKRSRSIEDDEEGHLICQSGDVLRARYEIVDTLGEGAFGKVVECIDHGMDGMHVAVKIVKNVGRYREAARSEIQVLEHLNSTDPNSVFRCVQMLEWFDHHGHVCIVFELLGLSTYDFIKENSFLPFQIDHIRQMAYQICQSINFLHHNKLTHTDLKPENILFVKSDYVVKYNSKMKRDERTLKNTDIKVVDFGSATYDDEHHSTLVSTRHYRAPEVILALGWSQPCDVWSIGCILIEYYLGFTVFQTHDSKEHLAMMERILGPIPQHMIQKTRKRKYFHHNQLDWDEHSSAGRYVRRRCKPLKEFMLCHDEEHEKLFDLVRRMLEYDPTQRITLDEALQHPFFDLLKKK
A further experiment addresses CDK18 (Homo sapiens, UniProt Q07002). The method, boiled down:
as §1

Setting [1] is: read-out: Kinome Profiling performed by Eurofins DiscoverX / AM-0277, 1.0 µM / POC.
The mark [2] stands for this setting: read-out: Kinome Profiling performed by Eurofins DiscoverX / AM-1882, 1.0 µM / POC.
Setting [3] is: read-out: Kinome Profiling performed by Eurofins DiscoverX / AM-5308, 1.0 µM / POC.

Where two headings read alike, the source gives them in different places.

Chain of CDK18 (Q07002 whole entry): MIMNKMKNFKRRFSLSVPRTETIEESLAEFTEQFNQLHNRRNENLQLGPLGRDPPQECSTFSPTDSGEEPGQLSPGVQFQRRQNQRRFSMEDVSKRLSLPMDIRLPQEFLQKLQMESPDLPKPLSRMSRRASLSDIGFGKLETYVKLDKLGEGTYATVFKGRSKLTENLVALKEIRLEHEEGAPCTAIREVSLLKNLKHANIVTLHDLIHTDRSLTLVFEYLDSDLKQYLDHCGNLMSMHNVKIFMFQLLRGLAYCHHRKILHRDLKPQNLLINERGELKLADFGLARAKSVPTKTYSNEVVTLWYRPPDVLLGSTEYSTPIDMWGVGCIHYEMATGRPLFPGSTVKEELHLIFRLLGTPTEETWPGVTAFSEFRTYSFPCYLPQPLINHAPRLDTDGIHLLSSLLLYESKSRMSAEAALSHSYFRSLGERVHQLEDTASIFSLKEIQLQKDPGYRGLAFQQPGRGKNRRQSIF

`CC(C)(CO)Nc1ccc(C(=O)Nc2cccc(S(=O)(=O)C3CCCC3)c2)c(N2CCC3(CC2)CC3)n1` [AM-0277]: the figures for the remaining activity at 1 µM at TAK1 (setting [1]), at CLK4 (setting [1]) and at CDK18 (setting [1]) were 100%, 97% and 78%, respectively.
On to `CC(C)(C)NS(=O)(=O)c1cccc(NC(=O)c2ccc(S(=O)(=O)NC(C)(C)C)cc2N2CCC3(CC2)CC3)c1` [AM-1882], for which the remaining activity at 1 µM on TAK1 (setting [2]) was 100%; at CLK4 (setting [2]), 100%; at CDK18 (setting [2]), 76%.
As for `C[C@@H]1CN(c2cccc(NC(=O)c3ccc(NS(=O)(=O)CCO)cc3N3CCC4(CC3)CC4)n2)CCO1` [AM-5308], the remaining activity at 1 µM was 88.5% at TAK1 (setting [3]), 100% at CLK4 (setting [3]) and 94% on CDK18 (setting [3]).
